Structures can show the parent of a compound that is named as a salt. Where two headings read alike, the source gives them in different places.
Legend:
[1] = target: BIR3 domain of human cIAP-1 (residues 267-363) (Homo sapiens (Human), UniProt Q13490); experiment: cIAP-1 in vitro competitive displacement binding assay (fluorescence polarization; Probe A AVPIK(5&6FAM)-amide or Probe B AbuRPFK(5&6FAM)-amide); settings: for inhibition at 0.01 µM: 3 h, Probe B, read-out: IC50 or PI cIAP1: PI
[2] = test system: EVSA-T (human breast carcinoma); experiment: Anti-proliferative activity, Alamar Blue assay, EVSA-T; assay type: cell-based; settings: Homo sapiens; for inhibition at 10 µM: read-out: EVSA-T prolif: % inhibition
[3] = target: BIR3 domain of human XIAP (residues 252-350) (Homo sapiens (Human), UniProt P98170); experiment: XIAP in vitro competitive displacement binding assay (fluorescence polarization); settings: read-out: IC50 or PI Xiap: IC50
[4] = Probe B AbuRPFK(5&6FAM)-amide, read-out: IC50 or PI cIAP1: IC50
[5] = EVSA-T cell line, 72 hours, Alamar Blue, read-out: EC50, inhibition of cell growth
[6] = EVSA-T, 72 hours, Alamar Blue, read-out: EVSA-T prolif (EC50)
[7] = read-out: IC50 or PI cIAP1: IC50
[8] = EVSA-T, 72 h, read-out: EVSA-T prolif (EC50)
[9] = EVSA-T, 72 h, read-out: EC50, inhibition of cell growth

Which IC50 [1] does the source give for `CNC(=O)[C@H]1CN[C@H](C)CN1CC(=O)N1CC(C)(C)c2cc(F)c(S(=O)(=O)c3ccccc3)cc21` [Example 56, (2R,5R)-1-[2-(6-Benzenesulfonyl-5-fluoro-3,3-dimethyl-2,3-dihydro-indol-1-yl)-2-oxo-ethyl]-5-methyl-piperazine-2-carboxylic acid methylamide hydrochloride salt] here?
Its IC50 is less than 1 µM.

What about the IC50 [1, 4] of the same compound?
Its IC50 is 0.13 µM.

What about the EC50 [2, 5] of the same compound?
Its EC50 is less than 10 µM.

What about the EC50 [2, 6] of the same compound?
Its EC50 is 2.3 µM.

What about the IC50 [3] of the same compound?
Its IC50 is 0.11 µM.

What does the source list for `CCS(=O)(=O)c1ccc2c(c1)N(C(=O)CN1C[C@@H](C)NC[C@@H]1COC)CC2(C)C` [Example 59, 1-(6-Ethane-sulfonyl-3,3-dimethyl-2,3-dihydro-indol-1-yl)-2-((2R,5R)-2-methoxymethyl-5-methyl-piperazin-1-yl)-ethanone dihydrochloride salt]?
IC50 [1, 7]: 0.5 µM; EC50 [2, 8]: 9.7 µM; IC50 [3]: 0.31 µM

`CNS(=O)(=O)c1ccc2c(c1)N(C(=O)CN1C[C@@H](C)NC[C@@H]1COC)CC2(C)C` [Example 61, 1-[2-((2R,5R)-2-Methoxymethyl-5-methyl-piperazin-1-yl)-acetyl]-3,3-dimethyl-2,3-dihydro-1H-indole-6-sulfonic acid methylamide dihydrochloride salt] was tested. Which IC50 [1, 7] did it give?
The IC50 was 1.6 µM.

And the inhibition at 10 µM ([2]; EVSA-T)?
Its inhibition at 10 µM is 0%.

And the IC50 [3]?
The IC50 was 0.22 µM.

What does the source list for `COC[C@H]1CN[C@H](C)CN1CC(=O)N1CC(C)(C)c2ccc(S(=O)(=O)N(C)C)cc21` [Example 68, 1-[2-((2R,5R)-2-Methoxymethyl-5-methyl-piperazin-1-yl)-acetyl]-3,3-dimethyl-2,3-dihydro-1H-indole-6-sulfonic acid dimethylamide dihydrochloride salt]?
IC50 [1, 7]: 1.2 µM; EC50 [2, 9]: < 10 µM; EC50 [2, 8]: 6.4 µM; IC50 [3]: 0.23 µM

Which results are given for `COC[C@H]1CN[C@H](C)CN1CC(=O)N1CC(C)(C)c2ccc(S(=O)(=O)NC(C)C)cc21` [Example 69, 1-[2-((2R,5R)-2-Methoxymethyl-5-methyl-piperazin-1-yl)-acetyl]-3,3-dimethyl-2,3-dihydro-1H-indole-6-sulfonic acid isopropylamide dihydrochloride salt]?
IC50 [1, 7]: 1.4 µM; inhibition at 10 µM ([2]; EVSA-T): 54%; IC50 [3]: 0.28 µM

How did the IC50 [1, 7] turn out when `COC[C@H]1CN[C@H](C)CN1CC(=O)N1CC(C)(C)c2ccc(S(=O)(=O)Cc3ccccc3)cc21` [Example 70, 1-(3,3-Dimethyl-6-phenylmethane-sulfonyl-2,3-dihydro-indol-1-yl)-2-((2R,5R)-2-methoxymethyl-5-methyl-piperazin-1-yl)-ethanone dihydrochloride salt] was run?
The IC50 was 0.82 µM.

And the EC50 [2, 9]?
The EC50 was less than 10 µM.

What about the EC50 [2, 8] of the same compound?
The EC50 was 7.9 µM.

And the IC50 [3]?
Its IC50 is 0.38 µM.

With `COC[C@H]1CN[C@H](C)CN1CC(=O)N1CC2(CN(C(C)=O)C2)c2ccc(Cl)cc21` [Example 71, 1-{1-Acetyl-6′-chloro-1′,2′-dihydrospiro[azetidine-3,3′-indole]-1′-yl}-2-[(2R,5R)-2-(methoxymethyl)-5-methylpiperazin-1-yl]ethan-1-one hydrochloride salt] as the compound, how does the IC50 [1, 4] read?
The IC50 was 0.54 µM.

And the EC50 [2, 5]?
Its EC50 is less than 10 µM.

And the EC50 [2, 6]?
The EC50 was 7.7 µM.

What about the IC50 [3] of the same compound?
Its IC50 is 0.49 µM.

With `COC[C@H]1CN[C@H](C)CN1CC(=O)N1CC(C)(C)c2cnc(Oc3ccccc3)cc21` [Example 74, 1-(3,3-Dimethyl-6-phenoxy-2,3-dihydro-pyrrolo[3,2-c]pyridin-1-yl)-2-((2R,5R)-2-methoxymethyl-5-methyl-piperazin-1-yl)-ethanone hydrochloride salt] as the compound, how does the IC50 [1, 4] read?
The IC50 was 0.099 µM.

What about the EC50 [2, 6] of the same compound?
Its EC50 is 0.56 µM.

What about the IC50 [3] of the same compound?
Its IC50 is 0.39 µM.

Which IC50 [1, 4] does the source give for `COC[C@H]1CN[C@H](C)CN1CC(=O)N1CC2(CN(C(C)=O)C2)c2ccc(Cc3ccccc3)cc21` [Example 76, 1-{1-Acetyl-6′-benzyl-1′,2′-dihydrospiro[azetidine-3,3′-indole]-1′-yl}-2-[(2R,5R)-2-(methoxymethyl)-5-methylpiperazin-1-yl]ethan-1-one hydrochloride salt] here?
The IC50 was 0.016 µM.

And the EC50 [2, 6]?
Its EC50 is 0.78 µM.

What about the IC50 [3] of the same compound?
The IC50 was 0.064 µM.

Which IC50 [1, 4] does the source give for `COC[C@H]1CN[C@H](C)CN1CC(=O)N1CC(C)(C)c2cnc(Cc3ccccc3F)cc21` [Example 77, 1-{6-[(2-Fluorophenyl)methyl]-3,3-dimethyl-1H,2H,3H-pyrrolo[3,2-c]pyridin-1-yl}-2-[(2R,5R)-2-(methoxy-methyl)-5-methyl-piperazin-1-yl]ethan-1-one] here?
The IC50 was 0.009 µM.

What about the EC50 [2, 6] of the same compound?
Its EC50 is 0.16 µM.

And the IC50 [3]?
The IC50 was 0.17 µM.

How did the IC50 [1, 4] turn out when `COC[C@H]1CN[C@H](C)CN1CC(=O)N1CC(C)(C)c2cnc(Cc3ccccc3Cl)cc21` [Example 78, 1-{6-[(2-Chlorophenyl)methyl]-3,3-dimethyl-1H,2H,3H-pyrrolo[3,2-c]pyridin-1-yl}-2-[(2R,5R)-2-(methoxy-methyl)-5-methyl-piperazin-1-yl]ethan-1-one hydrochloride salt] was run?
The IC50 was 0.035 µM.

And the EC50 [2, 6]?
The EC50 was 1.9 µM.

What about the IC50 [3] of the same compound?
The IC50 was 0.53 µM.

`COC[C@H]1CN[C@H](C)CN1CC(=O)N1CC(C)(C)c2cnc(CC3CCCCC3)cc21` [Example 79, 1-[6-(Cyclohexylmethyl)-3,3-dimethyl-1H,2H,3H-pyrrolo[3,2-c]pyridin-1-yl]-2-[(2R,5R)-2-(methoxymethyl)-5-methylpiperazin-1-yl]ethan-1-one] was tested. Which IC50 [1, 7] did it give?
The IC50 was 0.025 µM.

What about the EC50 [2, 6] of the same compound?
The EC50 was 0.49 µM.

And the IC50 [3]?
The IC50 was 1 µM.

What does the source list for `COC[C@H]1CN[C@H](C)CN1CC(=O)N1CC(C)(C)c2cnc(Cc3cccc(Cl)c3)cc21` [Example 86, 1-{6-[(3-Chlorophenyl)methyl]-3,3-dimethyl-1H,2H,3H-pyrrolo[3,2-c]pyridin-1-yl}-2-[(2R,5R)-2-(methoxymethyl)-5-methylpiperazin-1-yl]ethan-1-one, hydrochloride salt]?
IC50 [1]: < 1 µM; IC50 [1, 4]: 0.012 µM; EC50 [2, 6]: 0.31 µM; IC50 [3]: 0.29 µM

What does the source list for `COC[C@H]1CN[C@H](C)CN1CC(=O)N1CC(C)(C)c2cnc(C(C)c3ccccc3)cc21` (stereo partly drawn) [Example 87, 1-[3,3-Dimethyl-6-(1-phenylethyl)-1H,2H,3H-pyrrolo[3,2-c]pyridin-1-yl]-2-[(2R,5R)-2-(methoxymethyl)-5-methylpiperazin-1-yl]ethan-1-one, hydrochloride salt]?
IC50 [1]: < 1 µM; IC50 [1, 4]: 0.024 µM; EC50 [2, 6]: 0.51 µM; IC50 [3]: 0.24 µM

Which inhibition at 0.01 µM [1] does the source give for `COC[C@H]1CN[C@H](C)CN1CC(=O)N1CC(C)(C)c2cnc(Cc3ccc(F)cc3)cc21` [Example 88, 1-{6-[(4-Fluoro-phenyl)methyl]-3,3-dimethyl-1H,2H,3H-pyrrolo[3,2-c]pyridin-1-yl}-2-[(2R,5R)-2-(methoxy-methyl)-5-methyl-piperazin-1-yl]ethan-1-one, hydrochloride salt] here?
The inhibition at 0.01 µM was 84%.

What about the EC50 [2, 6] of the same compound?
Its EC50 is 0.04 µM.

What about the IC50 [3] of the same compound?
Its IC50 is 0.17 µM.

For `COC[C@H]1CN[C@H](C)CN1CC(=O)N1CC(C)(C)c2cnc(C3=CCCC3)cc21` [Example 90, 1-[6-(Cyclopent-1-en-1-yl)-3,3-dimethyl-1H,2H,3H-pyrrolo[3,2-c]pyridin-1-yl]-2-[(2R,5R)-2-(methoxymethyl)-5-methylpiperazin-1-yl]ethan-1-one, hydrochloride salt], which IC50 [1, 4] is on record?
Its IC50 is 0.079 µM.

And the EC50 [2, 6]?
Its EC50 is 0.33 µM.

And the IC50 [3]?
The IC50 was 0.27 µM.

`CC[C@H]1CN[C@H](C)CN1CC(=O)N1CC(C)(C)c2cnc(Cc3ccccc3)cc21` [Example 91, 1-{6-Benzyl-3,3-dimethyl-1H,2H,3H-pyrrolo[3,2-c]pyridin-1-yl}-2-[(2S,5R)-2-ethyl-5-methylpiperazin-1-yl]ethan-1-one, hydrochloride salt] was tested. Which IC50 [1, 4] did it give?
Its IC50 is 0.019 µM.

And the EC50 [2, 6]?
Its EC50 is 0.2 µM.

And the IC50 [3]?
Its IC50 is 0.29 µM.

With `COC[C@H]1CN[C@H](C)CN1CC(=O)N1CC(C)(C)c2cnc(C3CCCC3)cc21` [Example 92, 1-{6-Cyclopentyl-3,3-dimethyl-1H,2H,3H-pyrrolo[3,2-c]pyridin-1-yl}-2-[(2R,5R)-2-(methoxymethyl)-5-methylpiperazin-1-yl]ethan-1-one, hydrochloride salt] as the compound, how does the IC50 [1, 4] read?
Its IC50 is 0.27 µM.

And the EC50 [2, 6]?
Its EC50 is 4.8 µM.

And the IC50 [3]?
The IC50 was 1.2 µM.

Which results are given for `C[C@@H]1CN(CC(=O)N2CC(C)(C)c3cnc(Cc4ccccc4)cc32)[C@@H](C(=O)N2CCC2)CN1` [Example 100, 2-[(2R,5R)-2-[(Azetidin-1-yl)carbonyl]-5-methyl-piperazin-1-yl]-1-{6-benzyl-3,3-dimethyl-1H,2H,3H-pyrrolo[3,2-c]pyridin-1-yl}ethan-1-one, hydrochloride salt]?
IC50 [1, 4]: 0.014 µM; EC50 [2, 6]: 0.45 µM; IC50 [3]: 0.12 µM

Which inhibition at 0.01 µM [1] does the source give for `C[C@@H]1CN(CC(=O)N2CC(C)(C)c3cnc(Cc4ccccc4)cc32)[C@@H](C(=O)N2CCOCC2)CN1` [Example 101, 1-{6-Benzyl-3,3-dimethyl-1H,2H,3H-pyrrolo[3,2-c]pyridin-1-yl}-2-[(2R,5R)-5-methyl-2-[(morpholin-4-yl)carbonyl]piperazin-1-yl]ethan-1-one, hydrochloride salt] here?
The inhibition at 0.01 µM was 62%.

What about the EC50 [2, 6] of the same compound?
The EC50 was 0.14 µM.

And the IC50 [3]?
The IC50 was 0.072 µM.

`COC[C@H]1CN[C@H](C)CN1CC(=O)N1CC(C)(C)c2cnc(C#N)cc21` [Example 103, 1-{2-[(2R,5R)-2-(Methoxymethyl)-5-methylpiperazin-1-yl]acetyl}-3,3-dimethyl-1H,2H,3H-pyrrolo[3,2-c]pyridine-6-carbonitrile] was tested. Which IC50 [1] did it give?
The IC50 was less than 1 µM.

What about the IC50 [1, 7] of the same compound?
The IC50 was 0.87 µM.

What about the inhibition at 10 µM ([2]; EVSA-T, at 10 μM) of the same compound?
Its inhibition at 10 µM is 12%.

What about the IC50 [3] of the same compound?
Its IC50 is 0.42 µM.

What does the source list for `COC[C@H]1CN[C@H](C)CN1CC(=O)N1CC(C)(C)c2cnc(Cc3ccc(F)cc3F)cc21` [Example 105, 1-{6-[(2,4-Difluorophenyl)methyl]-3,3-dimethyl-1H,2H,3H-pyrrolo[3,2-c]pyridin-1-yl}-2-[(2R,5R)-2-(methoxymethyl)-5-methylpiperazin-1-yl]ethan-1-one, hydrochloride salt]?
inhibition at 0.01 µM [1]: 74%; EC50 [2, 6]: 0.055 µM; IC50 [3]: 0.19 µM

From patent publication US9018214B2, “Bicyclic heterocycle compounds and their uses in therapy” (Astex Therapeutics Limited, priority 2011, dated 2015)
